Reference: patent EP0187057A1, “2-Phenyl-isopropyl-allophanate, preparation and pharmaceutical application” (priority 1984, dated 1986)
Entries after “also recorded” stand apart in the source; their conditions may differ.

Experiments:
[1] = test system: crises psychomotrices; experiment: Psychomotor seizures induced by low-frequency transcranial electrical stimulation; type: in vivo, souris; settings: for Pourcentage de souris protégées une heure après traitement: groupes de 20 souris; for ED50: Mus musculus, po, read-out: DE50 capable de protéger 50 % des animaux contre les crises psychomotrices
From the text: (§1) Propriétés anticonvulsivantes : • On a effectué, pour déterminer ces propriétés anticonvulsivantes, des expérimentations sur le SCS 289 en procédant à des essais de protection : • - chez le lapin soumis à une transélectrification cranienne génératrice de crises épileptiformes de type "grand mal" ou recevant une infusion veineuse de pentétrazol provoquant l'apparition de myoclonies palpébrales; • - chez la souris recevant, par voie sous-cutanée des doses croissantes de pentétrazol entraînant convulsions et mort ou soumise à une transélectrification transcranienne à basse fréquence génératrice de crises psychomotrices.
On a également recherché si le SCS 289 était susceptible de protéger la souris contre le choc psychomoteur induit par une stimulation transcranienne à basse fréquence qui provoque, chez l'animal, un bref comportement de désorientation rappelant les attaques psychomotrices de l'homme.
Vis-à-vis des crises psychomotrices provoquées chez la souris par une stimulation électrique transcranienne à basse fréquence, le SCS 35 apparait plus actif que le SCS 289 : […]

[2] = test system: crises pentétrazoliques; experiment: Convulsant and lethal effects of subcutaneous pentetrazol (125 mg/kg); type: in vivo, souris
From the text: as §1
Pour déceler une synergie d'action antagoniste vis-à-vis des effets convulsivants et létaux du pentétrazol injecté par voie sous-cutanée chez la souris à la dose de 125 mg/kg, on a déterminé avec plus de précision la DE50 du SCS 289 et on a recherché si l'association avec le SCS 35 apportait un surcroit appréciable d'activité.
On n'a retenu comme significative que la protection à l'égard des effets létaux observés sur 24 heures.

[3] = test system: crises épileptiformes consécutives à l'électrochoc; experiment: Maximal electroshock producing epileptiform 'grand mal' seizures (1st and 2nd electroshock); type: in vivo, lapin; settings: for % d'animaux protégés complètement: one hour before second electroshock, groups of ten rabbits
From the text: as §1
Ne considérant comme significative, que la protection complète, les traitements pratiqués une heure avant le second électrochoc ont conféré les protection suivantes (sur groupes de dix lapins) :
Si, par ailleurs, on considère la protection contre les crises toniques (hyperextension des pattes postérieures), il apparaît également une synergie particulièrement aux doses associées de 200 mg/kg de produits.

[4] = test system: myoclonies palpébrales provoquées par l'infusion veineuse de pentétrazol; experiment: Intravenous pentetrazol infusion producing palpebral myoclonus (threshold seizures); type: in vivo, lapin; settings: reference anticonvulsants, essais croisés, unit not given
From the text: as §1
Les résultats quant à la protection contre les crises pentétrazoliques liminaires génératrices de myaclonies palpébrales figurent dans les tableaux ci-après.
L'administration préalable de SCS 289 retarde l'apparition des myoclonies palpébrales provoquées par l'infusion veineuse de pentétrazol.
Une expérimentation similaire pratiquée en essais croisés a donné les résultats suivants pour divers anticonvulsivants de référence : […]

SMILES: CCOC(=O)N(C(N)=O)c1ccccc1 [SCS 35, phényl-2 allophanate d'éthyle]
- Pourcentage de souris protégées une heure après traitement ([1]; 5 mg/kg voie digestive): 60%
- Pourcentage de souris protégées une heure après traitement ([1]; 10 mg/kg voie digestive): 90%
- Pourcentage de souris protégées une heure après traitement ([1]; 2,5 mg/kg voie digestive): 40%
- ED50 ([1]; souris, voie digestive): 3.5 mg/kg
- DE50 capable de protéger 50 % des animaux contre les crises psychomotrices ([1]; souris, voie digestive): 3,5 mg/kg
- % de protection vis-à-vis de la létalité pentétrazolique ([2]; 10 mg/kg): 0%
- % de protection vis-à-vis de la létalité pentétrazolique ([2]; 20 mg/kg): 10%
- % de protection vis-à-vis de la létalité pentétrazolique ([2]; 50 mg/kg): 50%
- ED50 ([2]; Mus musculus, sc, 24 h, souris, read-out: DE50 à l'égard des crises pentétrazoliques maximales et létales): 55 mg/kg
- % d'animaux protégés complètement ([3]; 100 mg/kg): Nul
- % d'animaux protégés contre les seules crises toniques ([3]; 100 mg/kg, hyperextension tonique des pattes postérieures): 60%
- % d'animaux protégés contre les seules crises toniques ([3]; 200 mg/kg): 80%
- % d'animaux protégés complètement ([3]; 200 mg/kg): 10%

SMILES: NC(=O)NC(=O)Cc1ccccc1 [Phénacétamide]
- Pourcentage de souris protégées une heure après traitement ([1]; 10 mg/kg voie digestive): 40%
- Pourcentage de souris protégées une heure après traitement ([1]; 25 mg/kg voie digestive): 70%
- Pourcentage de souris protégées une heure après traitement ([1]; 50 mg/kg voie digestive): 85%
- Pourcentage de souris protégées une heure après traitement ([1]; 100 mg/kg voie digestive): 100%
- ED50 ([1]; souris, voie digestive): ~14 mg/kg
- Elévation du seuil myoclonique ([4]; 25 mg/kg): 32,4
- Elévation du seuil myoclonique ([4]; 50 mg/kg): 43,1
- Elévation du seuil myoclonique ([4]; 100 mg/kg): 58,2

SMILES: CCCC(CCC)C(=O)O [Valproate de sodium]
- Pourcentage de souris protégées une heure après traitement ([1]; 50 mg/kg voie digestive): 15%
- Pourcentage de souris protégées une heure après traitement ([1]; 100 mg/kg voie digestive): 40%
- Pourcentage de souris protégées une heure après traitement ([1]; 250 mg/kg voie digestive): 85%
- ED50 ([1]; souris, voie digestive): ~120 mg/kg
- DL50/DE50 / Crises psycho-motrices ([1]; index thérapeutique absolu, souris): 15
- DE50 psychodépressive / DE50 anticonvulsivante / Crises psycho-motrices ([1]; index thérapeutique relatif, psychodépressive = mean of DE50 for agilité, force musculaire, motricité, curiosité): 7
- Elévation du seuil myoclonique ([4]; 100 mg/kg): 54,7
- Elévation du seuil myoclonique ([4]; 500 mg/kg): 65,5
- protection contre les crises électriques maximales ([3]; 500 mg/kg, same experimental conditions): absolument inefficace; also recorded: inactif
